Here are results for ten compounds from paper PMC10888192, “New Derivatives of 1-(3-Methyl-1-Benzofuran-2-yl)Ethan-1-one: Synthesis and Preliminary Studies of Biological Activity” (International Journal of Molecular Sciences, 2024).

Data set [1] concerns K562 leukemic cell line. On the set-up: method as in PMID 20657389, PMID 25482722, PMID 30465514, PMID 31003438. The following applies: lead compound; ref [32],[33],[34],[35]; cited from earlier work.
Data set [2] has as its system HL-60 leukemic cell line. On the set-up: method as in PMID 20657389, PMID 25482722, PMID 30465514, PMID 31003438. The following applies: lead compound; ref [32],[33],[34],[35]; cited from earlier work.
Data set [3] has as its system HeLa cancer cells. Set-up: method as in PMID 20657389, PMID 25482722, PMID 30465514, PMID 31003438. To be noted: lead compound; ref [32],[33],[34],[35]; cited from earlier work.
Data set [4] relates to K562 cells (human chronic myelogenous leukemia). The data set can be described thus: MTT cytotoxicity assay, K562. It counts as cell-based. The following applies: 72 h incubation, mean ± SD. On the procedure:
(§1) The cell viability was analyzed at the following six concentrations of compounds: 5, 10, 20, 40, 60 and 100 µM after 72 h incubation.
(§2) Additionally, to determine the safety profile of the tested compounds, the therapeutic index (TI) (the ratio of IC50 value in HaCaT to cancer cells K562) was calculated. […] The goal of conducting the MTT assay in this research was to select benzofuran derivatives, which manage to reduce viability of cancer cells while exposing mild effects on normal healthy cells.
(§3) The cytotoxicity was evaluated by MTT reduction assay, which measures mitochondrial respiratory function. The test was performed based on the method described by Präbst et al.. Cells (1 × 10^4/well), in logarithmic phase, were seeded into 96-well plates in appropriate medium. After 24 h, cells were exposed to test compounds. […] After 72 h, the medium with the compounds was completely removed and MTT solution (0.5 mg/mL) in fresh medium without serum was added to each well. Plates with cells were incubated for 4 h at 37 °C in the dark. Then, MTT solution was removed and replenished with 0.1 mL DMSO: isopropanol (1:1) mixture to dissolve the generated formazan crystals. The optical density was measured with a […] GO (ThermoScientific) microplate reader at 570 nm. Replicates of three wells for each dosage, including vehicle control, were analyzed for each experiment. The experiments were conducted in triplicate. Control cells which were only treated with respective medium were used as the 100% viability value. […] Additionally, to determine the safety profile of the test compounds, therapeutic indexes (TI) (the ratio of IC50 values in HaCat to cancer cells (K562, PC3, SW620, Cack-1)) were calculated.
In general terms: Formazan colour is commonly taken as a measure of viable cells.

The test system of data set [5] is PC3 cells (human metastatic prostate cancer). Description: MTT cytotoxicity assay, PC3. It counts as cell-based. The following applies: PC-3, 72 h incubation, mean ± SD. On the procedure: as §1, §2, §3
Data set [6] has as its system SW620 cells (human metastatic colon cancer). Description: MTT cytotoxicity assay, SW620. To be noted: SW-620, 72 h incubation, mean ± SD. In kind it is cell-based. On the procedure: as §1, §2, §3
In data set [7] the test system is Cacki-1 cells (human clear cell renal cell carcinoma). Description: MTT cytotoxicity assay, Cacki-1. In kind it is cell-based. To be noted: 72 h incubation. On the procedure:
as §1, §2, §3

Data set [8] has as its system HaCaT cells (human immortal keratinocytes). Description: MTT cytotoxicity assay, HaCaT. In kind it is cell-based. To be noted: 72 h incubation, mean ± SD. On the procedure:
as §1, §2, §3

Data set [9] concerns E. coli ATCC 25922. Description: MIC, microdilution. In kind it is cell-based. The following applies: Escherichia coli, ATCC25922; 18 h, 35 °C, MH II medium. On the procedure: (§4) The antimicrobial studies for all of the obtained compounds were conducted using reference strains of bacteria derived from international microbe collections—the American Type Culture Collection (ATCC) and the National Collection of Type Culture (NCTC). Among the reference strains there were two Gram-negative rods (P. aeruginosa ATCC 15442 and E. coli ATCC 25922) and six Gram-positive isolates (Staphylococcus aureus: NCTC 4163, ATCC 25923, ATCC 6538, ATCC 29213, S. epidermidis ATCC 12228, ATCC 35984).
(§5) The antimicrobial activity of compounds was expressed by minimum inhibitory concentration values (MICs), according to CLCI reference procedures with some modifications. MIC was tested by the two-fold serial microdilution method (in 96-well microtiter plates) on MH II liquid medium. The final inoculum of all of the studied bacteria was 10^6 CFU/mL (colony forming unit per mL). The stock solution of tested compounds was prepared in DMSO and was diluted in sterile medium (to a maximum of 1% of solvent content). The concentrations of compounds were from 16 to 512 µg/mL. […] Clinical microorganisms used in this study were obtained from the collection of the Department of Pharmaceutical Microbiology, Medical University of Warsaw, Poland [70, 71].

Data set [10] has as its system P. aeruginosa ATCC 15442. The data set can be described thus: MIC, microdilution. The following applies: Pseudomonas aeruginosa, ATCC15442; 18 h, 35 °C, MH II medium. In kind it is cell-based. On the procedure: as §4, §5
(In general: Broth dilution looks for growth in wells or tubes with falling amounts of substance.)

Data set [11] relates to S. epidermidis ATCC 35984. The data set can be described thus: MIC, microdilution. It counts as cell-based. To be noted: Staphylococcus epidermidis, ATCC35984; 18 h, 35 °C, MH II medium. On the procedure:
as §4, §5

The subject of data set [12] is S. epiderminis ATCC 122228. The data set can be described thus: MIC, microdilution. It counts as cell-based. To be noted: Staphylococcus epidermidis, ATCC122228, 18 h, read-out: MIC S. epiderminis ATCC 122228. On the procedure:
as §4, §5

In data set [13] the test system is S.aureus ATCC 25923. Description: MIC, microdilution. To be noted: Staphylococcus aureus, ATCC25923; 18 h, 35 °C, MH II medium. It counts as cell-based. On the procedure:
as §4, §5

The subject of data set [14] is S.aureus ATCC 6538. Description: MIC, microdilution. It counts as cell-based. The following applies: Staphylococcus aureus, ATCC6538; 18 h, 35 °C, MH II medium. On the procedure: as §4, §5
The test system of data set [15] is S.aureus NCTC 29213. The data set can be described thus: MIC, microdilution. In kind it is cell-based. To be noted: Staphylococcus aureus, NCTC29213, 18 h, read-out: MIC S.aureus NCTC 29213. On the procedure:
as §4, §5

The subject of data set [16] is S.aureus NCTC 4163. The data set can be described thus: MIC, microdilution. To be noted: Staphylococcus aureus, NCTC4163; 18 h, 35 °C, MH II medium. In kind it is cell-based. On the procedure:
as §4, §5

The test system of data set [17] is clinical strains. Description: organism not typed. In kind it is cell-based. The following applies: read-out: MIC clinical strains. On the procedure: as §5

Structures are written as SMILES. In brackets after ≈: the same amount, converted by molar mass.

For `COc1cc2c(CBr)c(C(C)=O)oc2c(C(C)=O)c1OC` [1,1′-[3-(bromomethyl)-5,6-dimethoxy-1-benzofuran-2,7-diyl]diethanone], the IC50 (as a rule, the concentration needed to halve the response being measured) in data set [1] was 5 µM; in data set [2] it was 0.1 µM. In data set [3], the “Toxicity toward HeLa cancer cells” value is “exhibiting toxicity toward neither HeLa cancer cells”.
The compound `CC(C)C[C@H](NC(=O)[C@H](Cc1ccccc1)NC(=O)c1cnccn1)B(O)O` [Bortezomib, reference compound] gave an IC50 in [4] of 0.04 ± 0.01 µM.
On to `COc1ccc2oc(C(C)=O)c(C)c2c1` [Compound 1, 1-(5-Methoxy-3-Methyl-1-Benzofuran-2-yl)Ethanone], for which the melting point – broadly, the temperature of the solid-liquid transition – lay within 93 to 96 °C. Further, in data set [4], the IC50 is 57 ± 3.5 µM. This compound also returned an IC50 in [5] of 80 ± 20 µM. In addition, the IC50 in data set [6] is over 100 µM. The compound further showed an IC50 in data set [7] of over 100 µM. For the same compound, in data set [8], the IC50 was over 100 µM.
Take `COc1cc(OC)c2c(C)c(C(C)=O)oc2c1` [Compound 2, 1-(4,6-Dimethoxy-3-Methyl-1-Benzofuran-2-yl)Ethanone]: the melting point lay within 115 to 118 °C. Also, in data set [4], the IC50 was 36.3 ± 4.5 µM. This compound came in with an IC50 in data set [5] of over 100 µM. The compound also gave an IC50 in data set [6] of over 100 µM. Also, in [7], the IC50 was over 100 µM. The compound also displayed an IC50 in data set [8] of 67.3 ± 29.7 µM.
In turn, `CCOc1cccc2oc(C(C)=O)c(C)c12` [Compound 3, 1-(4-Ethoxy-3-Methyl-1-Benzofuran-2-yl)Ethanone] yielded a melting point of 60 to 65 °C. Also, in data set [4], the IC50 was 58 ± 21.1 µM. This compound also gave an IC50 in data set [5] of 66.4 ± 28.7 µM. The compound also yielded an IC50 in data set [6] of 52.3 ± 22.5 µM. This compound registered an IC50 in [7] of over 100 µM. Further, the IC50 in data set [8] is over 100 µM.
Compound `CCOc1ccc2c(C)c(C(C)=O)oc2c1` [Compound 4, 1-(6-Ethoxy-3-Methyl-1-Benzofuran-2-yl)Ethanone] displayed a melting point of 86 to 90 °C. In addition, half-maximal inhibition in data set [4] (IC50) required 60 ± 9 µM. The compound also gave an IC50 in data set [5] of over 100 µM. Moreover, the concentration for half-maximal inhibition (IC50) in [6] was over 100 µM. In data set [7], this compound registered an IC50 of over 100 µM. In addition, the midpoint of inhibition in data set [8], the IC50, lay at 55.3 ± 33.4 µM.
In turn, `COc1ccc2oc(C(C)=O)c(CBr)c2c1` [Compound 5, 1-[3-(Bromomethyl)-5-Methoxy-1-Benzofuran-2-yl]Ethanone] had a melting point of 103 to 106 °C. For the same compound, the IC50 in data set [4] came out at 10.3 ± 0.55 µM. The compound further had an IC50 in data set [5] of 17.5 ± 3.5 µM. This compound also had an IC50 in data set [6] of 15.6 ± 4.1 µM. Besides, the IC50 in data set [7] was over 100 µM. In addition, half-maximal inhibition in data set [8] (IC50) required 15 ± 0.8 µM.
Compound `COc1cc2oc(C(C)=O)c(CBr)c2c(OC)c1Br` [Compound 7, 1-[5-Bromo-3-(Bromomethyl)-4,6-Dimethoxy-1-Benzofuran-2-yl]Ethanone] gave a melting point of 165 to 171 °C. In [4], the midpoint of inhibition, the IC50, lay at 50 ± 10 µM. This compound also registered an IC50 in data set [5] of 40 ± 15 µM. The compound further displayed a half-maximal inhibitory concentration (IC50) in data set [6] of 47.1 ± 22.2 µM. The compound also showed an IC50 in data set [7] of over 100 µM. For the same compound, the IC50 in [8] was found to be 5.69 ± 5.67 µM. Also, the MIC – broadly, the smallest concentration in the dilution series that meets the test's criterion for growth inhibition – in data set [9] was over 512 µg/mL. The MIC in [10] was over 512 µg/mL. Also, the MIC in data set [11] is 16 µg/mL (≈ 40.8 µM). The MIC in [12] was determined as 16 µg/mL (≈ 40.8 µM). This compound displayed an MIC in data set [13] of 16 µg/mL (≈ 40.8 µM). In data set [14], this compound registered an MIC of 64 µg/mL (≈ 163 µM). Moreover, in [15], the MIC was 32 µg/mL (≈ 81.6 µM). The compound further yielded an MIC in [16] of over 512 µg/mL. Moreover, the MIC in [17] is over 250 µg/mL.
Regarding `CCOc1ccc2c(CBr)c(C(C)=O)oc2c1` [Compound 9, 1-[3-(Bromomethyl)-6-Ethoxy-1-Benzofuran-2-yl]Ethanone], the melting point was 98 to 105 °C. In addition, the IC50 in data set [4] is 14.4 ± 3.7 µM. The same compound gave an IC50 in data set [5] of 40 ± 20 µM. In data set [6], this compound came in with an IC50 of over 100 µM. Also, the IC50 in [7] was over 100 µM. In data set [8], this compound showed an IC50 of 22.8 ± 1.51 µM.
`COc1cccc2c1C(=O)c1c(O)c3c(c(O)c1C2=O)C[C@@](O)(C(=O)CO)C[C@@H]3O[C@H]1C[C@H](N)[C@H](O)[C@H](C)O1` [Doxorubicin, reference compound] came in with an IC50 in [4] of 0.21 ± 0.1 µM.
